Measurements published in patent US20140303367A1, “Methods for Synthesizing Molybdopterin Precursor Z Derivatives” (Alexion Pharma International Sàrl, priority 2011, published 2014).

What was measured:
[1] = test system: human apo-sulfite oxidase; assay: In vitro synthesis of Moco from cPMP (conversion into MPT, molybdate insertion, reconstitution of apo-sulfite oxidase); assay type: biochemical; conditions: FIG. 1
Source text: In vitro synthesis of Moco was compared using samples of synthetic precursor Z (cPMP) and cPMP purified from E. coli. Moco synthesis also involved the use of the purified components E. coli MPT synthase, gephyrin, molybdate, ATP, and apo-sulfite oxidase. See U.S. Pat. No. 7,504,095 and “Biosynthesis and molecular biology of the molybdenum cofactor (Moco)” in Metal Ions in Biological Systems, Mendel, Ralf R. and Schwarz, Günter, Informa Plc, 2002, Vol. 39, pages 317-68. The assay is based on the conversion of cPMP into MPT, the subsequent molybdate insertion using recombinant gephyrin and ATP, and finally the reconstitution of human apo-sulfite oxidase.

[2] = target: MPT synthase from E. coli (Escherichia coli, UniProt P30748+P30749); assay: In vitro synthesis of MPT from cPMP; assay type: biochemical; conditions: FIGS. 2 and 3; for conversion of cPMP into MPT: all samples
Chain of MPT synthase from E. coli (P30749 whole entry): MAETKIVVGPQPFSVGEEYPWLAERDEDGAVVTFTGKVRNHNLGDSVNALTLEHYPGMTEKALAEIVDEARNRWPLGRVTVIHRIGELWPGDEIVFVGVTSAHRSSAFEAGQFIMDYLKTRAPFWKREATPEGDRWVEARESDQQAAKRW
Chain of MPT synthase from E. coli (P30748 whole entry): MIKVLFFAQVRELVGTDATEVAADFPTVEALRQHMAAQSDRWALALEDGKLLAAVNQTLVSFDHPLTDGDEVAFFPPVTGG
Source text: In vitro synthesis of MPT was compared using samples of synthetic precursor Z (cPMP) and cPMP purified from E. coli. MPT synthesis also involved the use of in vitro assembled MPT synthase from E. coli. See U.S. Pat. No. 7,504,095 and “Biosynthesis and molecular biology of the molybdenum cofactor (Moco)” in Metal Ions in Biological Systems, Mendel, Ralf R. and Schwarz, Günter, Informa Plc, 2002, Vol. 39, pages 317-68.

Nc1nc2c(c(=O)[nH]1)N[C@@H]1[C@H](N2)O[C@@H]2COP(=O)(O)O[C@@H]2C1(O)O [synthetic cPMP, (4aR,5aR,11aR,12aS)-1,3,2-Dioxaphosphorino[4′,5′:5,6]pyrano[3,2-g]pteridin-10(4H)-one,8-amino-4a,5a,6,9,11,11a,12,12a-octahydro-2,12,12-trihydroxy-2-oxide]
Moco synthesis ([1]; E. coli MPT synthase, gephyrin, molybdate, ATP, apo-sulfite oxidase): confirmed
Moco conversion in comparison to E. coli purified cPMP [1]: no differences
MPT synthesis ([2]; in vitro assembled MPT synthase from E. coli, three repetitions): confirmed
conversion of cPMP into MPT ([2]; in vitro): linear conversion
MPT conversion compared to E. coli purified cPMP ([2]; in vitro, three repetitions): no apparent differences

Nc1nc(=O)c2c([nH]1)N[C@@H]1O[C@@H]3COP(=O)(O)O[C@@H]3C(O)(O)[C@@H]1N2 [E. coli purified cPMP, reference compound]
conversion of cPMP into MPT ([2]; in vitro): linear conversion
